# Experimental data published in PubChem BioAssay AID192 (DTP/NCI, 2004).
# Several values for one entry are separate records, joined by “and”; a condition that tells them apart may be missing. Identical values can stand only once. Inconclusive results and toxic doses are left out.
# Test system: BDF1 mice, B16 melanoma ip, median survival T/C
# Test: NCI In Vivo Anticancer Drug Screen. Data for tumor model B16 Melanoma (intraperitoneal) in B6D2F1 (BDF1) mice
# Conditions: endpoint: median survival time, higher = longer survival
# Procedure: The antitumor activity of compounds was measured in mice bearing transplantable tumors. Survival or tumor size were measured and the results are expressed as the measurement made in the treated group (T) divided by the measurement made in the vehicle treated control group (C). The tumor model used in this assay is B16 Melanoma (intraperitoneal) in B6D2F1 (BDF1) mice
# [1] = dose: 100.0 mg/kg/injection, schedule: Q04DX003 (ip), vehicle: Klucel (hydroxypropylcellulose) (HPC)
# [2] = dose: 200.0 mg/kg/injection, schedule: Q04DX003 (ip), vehicle: Klucel (hydroxypropylcellulose) (HPC)
# [3] = dose: 6.25 mg/kg/injection, schedule: Q01DX009 (ip), vehicle: Klucel (hydroxypropylcellulose) (HPC)
# [4] = dose: 12.5 mg/kg/injection, schedule: Q01DX009 (ip), vehicle: Klucel (hydroxypropylcellulose) (HPC)
# [5] = dose: 100.0 mg/kg/injection, schedule: Q01DX009 (ip), vehicle: saline with Tween-80
# [6] = dose: 200.0 mg/kg/injection, schedule: Q01DX009 (ip), vehicle: saline with Tween-80
# [7] = dose: 50.0 mg/kg/injection, schedule: Q01DX009 (ip), vehicle: Klucel (hydroxypropylcellulose) (HPC)
# [8] = dose: 100.0 mg/kg/injection, schedule: Q01DX009 (ip), vehicle: Klucel (hydroxypropylcellulose) (HPC)
# [9] = dose: 200.0 mg/kg/injection, schedule: Q01DX009 (ip), vehicle: Klucel (hydroxypropylcellulose) (HPC)
# [10] = dose: 12.5 mg/kg/injection, schedule: Q01DX009 (ip), vehicle: saline with Tween-80
# [11] = dose: 25.0 mg/kg/injection, schedule: Q01DX009 (ip), vehicle: saline with Tween-80
# [12] = dose: 50.0 mg/kg/injection, schedule: Q01DX009 (ip), vehicle: saline with Tween-80
# [13] = dose: 6.25 mg/kg/injection, schedule: Q01DX009 (ip), vehicle: saline with Tween-80
# [14] = dose: 25.0 mg/kg/injection, schedule: Q01DX009 (ip), vehicle: Klucel (hydroxypropylcellulose) (HPC)
smiles,measurement,setting,value
Cc1cc(C(C)C)cc(C(C)C)c1,T/C,"dose: 6.25 mg/kg/injection, schedule: Q04DX003 (ip), vehicle: Klucel (hydroxypropylcellulose) (HPC)",102 % of control
same,T/C,"dose: 12.5 mg/kg/injection, schedule: Q04DX003 (ip), vehicle: Klucel (hydroxypropylcellulose) (HPC)",108 % of control
same,T/C,"dose: 25.0 mg/kg/injection, schedule: Q04DX003 (ip), vehicle: Klucel (hydroxypropylcellulose) (HPC)",105 % of control
same,T/C,"dose: 50.0 mg/kg/injection, schedule: Q04DX003 (ip), vehicle: Klucel (hydroxypropylcellulose) (HPC)",88 % of control
same,T/C,[1],98 % of control
same,T/C,[2],97 % of control
O=C(O)c1ccc(C(=O)O)c(C(=O)O)c1.[NH-]C1CCCCC1[NH-].[Pt+2],T/C,"dose: 0.19 mg/kg/injection, schedule: Q01DX009 (ip), vehicle: sodium bicarbonate",151 % of control
same,T/C,"dose: 0.39 mg/kg/injection, schedule: Q01DX009 (ip), vehicle: sodium bicarbonate",118 % of control
same,T/C,"dose: 0.4 mg/kg/injection, schedule: Q01DX009 (ip), vehicle: sodium bicarbonate",116 % of control
same,T/C,"dose: 0.78 mg/kg/injection, schedule: Q01DX009 (ip), vehicle: sodium bicarbonate",185 % of control
same,T/C,"dose: 0.8 mg/kg/injection, schedule: Q01DX009 (ip), vehicle: other",165 % of control
same,T/C,"dose: 1.56 mg/kg/injection, schedule: Q01DX009 (ip), vehicle: other",181 % of control
same,T/C,"dose: 1.56 mg/kg/injection, schedule: Q01DX009 (ip), vehicle: sodium bicarbonate",158 % of control and 159 % of control
same,T/C,"dose: 1.6 mg/kg/injection, schedule: Q01DX009 (ip), vehicle: other",157 % of control
same,T/C,"dose: 1.6 mg/kg/injection, schedule: Q01DX009 (ip), vehicle: sodium bicarbonate",161 % of control
same,T/C,"dose: 3.12 mg/kg/injection, schedule: Q01DX009 (ip), vehicle: other",169 % of control
same,T/C,"dose: 3.2 mg/kg/injection, schedule: Q01DX009 (ip), vehicle: sodium bicarbonate",168 % of control
same,T/C,"dose: 4.8 mg/kg/injection, schedule: Q01DX009 (ip), vehicle: sodium bicarbonate",169 % of control
same,T/C,"dose: 6.25 mg/kg/injection, schedule: Q01DX009 (ip), vehicle: other",171 % of control
S=C=NCC(Br)CBr (stereo not drawn),T/C,[3],86 % of control
same,T/C,[4],86 % of control
Oc1ccccc1O.[O-]c1ccccc1[O-].[O-]c1ccccc1[O-].[O]=[V+2],T/C,"dose: 2.5 mg/kg/injection, schedule: Q01DX009 (ip), vehicle: saline",88 % of control
same,T/C,"dose: 5.0 mg/kg/injection, schedule: Q01DX009 (ip), vehicle: saline",91 % of control
same,T/C,"dose: 10.0 mg/kg/injection, schedule: Q01DX009 (ip), vehicle: saline",97 % of control
CCCCCCCCCCCc1n(Cc2ccccc2)cc[n+]1C,T/C,"dose: 0.75 mg/kg/injection, schedule: Q01DX009 (ip), vehicle: saline",86 % of control
same,T/C,"dose: 1.5 mg/kg/injection, schedule: Q01DX009 (ip), vehicle: saline",90 % of control
same,T/C,"dose: 3.0 mg/kg/injection, schedule: Q01DX009 (ip), vehicle: saline",97 % of control
O=C(O)c1cccc2[nH]c(=O)oc(=O)c12,T/C,[5],89 % of control
same,T/C,[6],91 % of control
c1ccc(-c2nnc(-c3ccccn3)nn2)nc1,T/C,[7],103 % of control
same,T/C,[8],107 % of control
same,T/C,[9],97 % of control
same,T/C,"dose: 400.0 mg/kg/injection, schedule: Q01DX009 (ip), vehicle: Klucel (hydroxypropylcellulose) (HPC)",96 % of control
FC(F)(F)c1nc2nc(Cl)c(Cl)nc2[nH]1,T/C,[10],116 % of control
same,T/C,[11],114 % of control
same,T/C,[12],98 % of control
CNC(=O)Nc1c(C)cccc1C,T/C,[8],96 % of control
same,T/C,[9],100 % of control
Nc1nc(=S)c2ncn(C3OC(CO)C(O)C3O)c2[nH]1 (stereo not drawn),T/C,"dose: 0.5 mg/kg/injection, schedule: Q01DX009 (ip), vehicle: saline with Tween-80",109 % of control
same,T/C,"dose: 1.0 mg/kg/injection, schedule: Q01DX009 (ip), vehicle: saline sonified",106 % of control
same,T/C,"dose: 1.0 mg/kg/injection, schedule: Q01DX009 (ip), vehicle: saline with Tween-80",122 % of control
same,T/C,"dose: 2.0 mg/kg/injection, schedule: Q01DX009 (ip), vehicle: saline sonified",102 % of control
same,T/C,"dose: 2.0 mg/kg/injection, schedule: Q01DX009 (ip), vehicle: saline with Tween-80",113 % of control
S=C1SCN(C2CCCCC2)CN1C1CCCCC1,T/C,[1],93 % of control
same,T/C,[2],90 % of control
same,T/C,"dose: 400.0 mg/kg/injection, schedule: Q04DX003 (ip), vehicle: Klucel (hydroxypropylcellulose) (HPC)",86 % of control
CC(=O)OC(CC(O)(C(F)(F)F)C(F)(F)F)C(C)(C)C (stereo not drawn),T/C,[10],120 % of control
same,T/C,"dose: 12.5 mg/kg/injection, schedule: Q04DX003 (ip), vehicle: saline with Tween-80",105 % of control
same,T/C,[11],117 % of control
same,T/C,"dose: 25.0 mg/kg/injection, schedule: Q04DX003 (ip), vehicle: saline with Tween-80",105 % of control
same,T/C,[12],97 % of control
same,T/C,"dose: 50.0 mg/kg/injection, schedule: Q04DX003 (ip), vehicle: saline with Tween-80",117 % of control
CSc1nc(N)cc(NC(=O)CCl)n1,T/C,[13],109 % of control
same,T/C,[10],97 % of control
same,T/C,[11],89 % of control and 118 % of control
same,T/C,[12],97 % of control and 120 % of control
CC(C)c1ccc(NC(=O)Nc2cccc3ccccc23)cc1,T/C,[8],100 % of control
same,T/C,[9],97 % of control
OCC1OCCO1,T/C,[5],96 % of control
same,T/C,[6],93 % of control
BrCc1ccc2c3c(ccc(CBr)c13)CC2,T/C,[4],103 % of control
same,T/C,[14],98 % of control
same,T/C,[7],96 % of control
same,T/C,[12],112 % of control
same,T/C,[8],100 % of control
same,T/C,[5],122 % of control
same,T/C,"dose: 100.0 mg/kg/injection, schedule: Q04DX003 (ip), vehicle: saline with Tween-80",107 % of control
same,T/C,[6],95 % of control
same,T/C,"dose: 200.0 mg/kg/injection, schedule: Q04DX003 (ip), vehicle: saline with Tween-80",112 % of control
same,T/C,"dose: 400.0 mg/kg/injection, schedule: Q04DX003 (ip), vehicle: saline with Tween-80",105 % of control
CCCCCCC(=O)C(CCCC)(C(=O)OCC)C(=O)OCC,T/C,[8],89 % of control
C=CCSC(C)CC (stereo not drawn),T/C,[11],108 % of control
same,T/C,[12],119 % of control
same,T/C,[5],107 % of control
C[N+]1(C)CCCC1,T/C,"dose: 6.25 mg/kg/injection, schedule: Q01DX009 (ip), vehicle: saline",111 % of control
same,T/C,"dose: 6.25 mg/kg/injection, schedule: Q04DX003 (ip), vehicle: saline",95 % of control
same,T/C,"dose: 12.5 mg/kg/injection, schedule: Q01DX009 (ip), vehicle: saline",100 % of control
same,T/C,"dose: 12.5 mg/kg/injection, schedule: Q04DX003 (ip), vehicle: saline",95 % of control
same,T/C,"dose: 25.0 mg/kg/injection, schedule: Q01DX009 (ip), vehicle: saline",91 % of control
same,T/C,"dose: 25.0 mg/kg/injection, schedule: Q04DX003 (ip), vehicle: saline",95 % of control
CCCCCCCCCCCCCCNC(=O)CCl,T/C,[8],113 % of control
same,T/C,[9],106 % of control
O=[N+]([O-])c1ccc(C=C2C(Cl)=C(Cl)C(Cl)=C2Cl)cc1,T/C,"dose: 3.13 mg/kg/injection, schedule: Q01DX009 (ip), vehicle: saline with Tween-80",101 % of control
same,T/C,[13],91 % of control
same,T/C,[10],89 % of control
CCN(CC)CCSC(CO)c1ccccc1 (stereo not drawn),T/C,[14],103 % of control
same,T/C,[7],96 % of control
same,T/C,[8],93 % of control
Nc1ccc(S(=O)(=O)c2ccc(N)cc2)cc1,T/C,[10],107 % of control
same,T/C,[11],97 % of control and 102 % of control
same,T/C,[12],90 % of control and 94 % of control
same,T/C,[5],93 % of control and 95 % of control
same,T/C,[6],94 % of control
O=C(Nc1ccccc1C(F)(F)F)c1ccc(C(=O)Nc2ccccc2C(F)(F)F)cc1,T/C,"dose: 8.0 mg/kg/injection, schedule: Q01DX009 (ip), vehicle: saline with Tween-80",88 % of control
same,T/C,"dose: 12.0 mg/kg/injection, schedule: Q01DX009 (ip), vehicle: saline with Tween-80",90 % of control
same,T/C,[10],212 % of control
same,T/C,"dose: 18.0 mg/kg/injection, schedule: Q01DX009 (ip), vehicle: saline with Tween-80",88 % of control
same,T/C,[11],171 % of control
same,T/C,[12],156 % of control
COc1ccc(N2C(=O)CC(Sc3ccccc3N)C2=O)cc1 (stereo not drawn),T/C,[14],94 % of control
same,T/C,[7],86 % of control
same,T/C,[8],97 % of control
O=C(c1cccc(C(=O)n2c3c(c4ccccc42)CCCC3)c1)n1c2c(c3ccccc31)CCCC2,T/C,[13],94 % of control
same,T/C,[10],102 % of control
same,T/C,[11],100 % of control
COc1cc2c(cc1OC)C(C#N)C2 (stereo not drawn),T/C,[3],105 % of control
same,T/C,[4],97 % of control and 102 % of control
same,T/C,[14],111 % of control
